Measurements as given in patent US20240058318A1, “DEGRADING PKCB1 TO TREAT CANCER” (Mayo Foundation for Medical Education and Research, priority 2020, published 2024).

Tests used:
Assay type in all cases: cell-based
BT549 cells = assay: Crystal violet (CV) proliferation assay, BT549; conditions: BT549 (PKCß1 high, Rb negative), 2000 cells
Method: (§1) Cell proliferation rates were determined using crystal violet assays. […] Cells were fixed with 25% glutaraldehyde for 10 minutes with shaking, washed 5 times with distilled water, stained with a 1% crystal violet solution (solubilized in 25% methanol) for 10 minutes, washed again 5 times and allowed to dry. De-staining was performed using […] sodium citrate in 50% ethanol followed by quantification using a 96 well spectrophotometer set at an absorbance of 550 nm.

[1] = tested on: Rb-proficient (MDAMB231) and Rb-deficient (BT549 and MDAMB436) TNBC cells; assay: CV proliferation assay, TNBC cells (statements across lines); conditions: MDAMB231 and BT549 cells (FIG. 4A and TABLE 1)
Method: (§2) Cell proliferation rates were determined using crystal violet assays. One thousand cells per well were plated in 96 well tissue culture plates and treated the following day with a bifunctional compound or control for 7 days in replicates of 8. Cells were fixed with 25% glutaraldehyde for 10 minutes with shaking, washed 5 times with distilled water, stained with a 1% crystal violet solution (solubilized in 25% methanol) for 10 minutes, washed again 5 times and allowed to dry. De-staining was performed using […] sodium citrate in 50% ethanol followed by quantification using a 96 well spectrophotometer set at an absorbance of 550 nm.
as §2, with “using CV” for “using crystal violet”, “assays. Two” for “assays. One”, “thousand (2000) or 4000” for “thousand”, “for 6” for “for 7”, “of 6.” for “of 8.”

[2] = tested on: ER-stress induced UPR pathway; assay: Western blot of UPR pathway proteins in MDA-MB-231 cells; conditions: 1 μM
Method: Triple negative breast cancer MDA-MB-231 cells were cultured in phenol-red free DMEM/F12 medium supplemented with 10% FBS and 1% AA. Cells were plated at 1×10^6 cells per 10 cm dish. The next day, the cells were treated with DMSO, 1 μM Pr-7 or 1 μM ENDX for 1, 8, 24, and 48 hours, and were then processed for RNA and RIPA protein analysis.
For western blotting, 30 μg of protein lysates were run on Criterion precast 10% Bis-Tris gel, transferred to PVDF membrane, incubated in TBST-5% milk for one hour followed by overnight incubation with phospho-IRE1α (Sigma SAB5700519, rabbit, 1:1000), IRE1α (CS3294, rabbit, 1:1000), phospho-eIF2α (CS3398, rabbit, 1:1000), eIF2α (CS5324, rabbit, 1:1000), CHOP (CS2895, mouse, 1:1000), PUMA (SC374223, mouse, 1:200), NOXA (CS14766, rabbit, 1:1000), E2F1 (SC251, mouse, 1:250), BCL2 (SC7382, 1:200), cleaved PARP (CS5625, rabbit, 1:1000), PARP (CS9542, rabbit, 1:1000), PKCβ1 (SC8049, mouse, 1:200), PKCδ (CS2058, rabbit, 1:1000) and Actin (Sigma A2228, mouse, 1:10,000) primary antibodies in TBST-5% BSA solution. Membranes were washed in TBS-T, incubated for one-hour in HRP-linked anti-rabbit or anti-mouse secondary antibodies in TBST-5% milk, and washed with TBS-T. Bands were developed using west-pico or west-femto chemiluminescent substrate reagents.

MDAMB436 cells = assay: Crystal violet (CV) proliferation assay, MDAMB436; conditions: MDAMB436 (PKCß1 low, Rb negative), 2000 cells
Method: as §1

IC50 (BT549 cells): 43 nM | IC50 (MDAMB436 cells): 40 nM
Compound: CC/C(=C(\c1ccc(O)cc1)c1ccc(OCCN(C)C(=O)COCCNC(=O)Cc2ccc3c(c2)CN(C2CCC(=O)NC2=O)C3=O)cc1)c1ccccc1 (centres unmarked) [TC-Pr-007]
induction of apoptosis [1]: induced apoptosis | E2F1 expression [2]: downregulation | E2F7 activation [2]: activated E2F7 | PARP cleavage [2]: increased PARP cleavage | expression of anti-apoptotic protein BCL2 [2]: downregulated | activation of ER-stress induced UPR pathway ([2]; 1-48 hours): robustly activated multiple components
